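The compound was tested at five concentrations on cells cultured in 96-well plates, with a 48-hour exposure period. Definition used: TGI = concentration required for complete inhibition of growth.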
Tests used:
Assay in all cases: NCI tumour cell line growth inhibition, 48 h
HCT-116 colon = test system: HCT-116 colon
RPMI-8226 leukemia = test system: RPMI-8226 leukemia
MALME-3M melanoma = test system: MALME-3M melanoma
HT29 colon = test system: HT29 colon
KM20L2 colon = test system: KM20L2 colon
OVCAR-4 ovarian = test system: OVCAR-4 ovarian
DMS 273 small cell lung = test system: DMS 273 small cell lung
SK-OV-3 ovarian = test system: SK-OV-3 ovarian
SF-539 CNS = test system: SF-539 CNS
NCI-H460 lung = test system: NCI-H460 lung
LXFL 529 NSCLC = test system: LXFL 529 NSCLC
M14 melanoma = test system: M14 melanoma
SN12C renal = test system: SN12C renal
U251 CNS = test system: U251 CNS
A498 renal = test system: A498 renal
COLO 205 colon = test system: COLO 205 colon
786-0 renal = test system: 786-0 renal
KM12 colon = test system: KM12 colon
UO-31 renal = test system: UO-31 renal
NCI-H23 lung = test system: NCI-H23 lung
OVCAR-8 ovarian = test system: OVCAR-8 ovarian
HOP-92 NSCLC = test system: HOP-92 NSCLC
A549 NSCLC = test system: A549 NSCLC
MOLT-4 leukemia = test system: MOLT-4 leukemia
UACC-62 melanoma = test system: UACC-62 melanoma
SW-620 colon = test system: SW-620 colon
SNB-75 CNS = test system: SNB-75 CNS
IGROV1 ovarian = test system: IGROV1 ovarian
DLD-1 colon = test system: DLD-1 colon
K-562 leukemia = test system: K-562 leukemia
LOX IMVI melanoma = test system: LOX IMVI melanoma
HCC-2998 colon = test system: HCC-2998 colon
SK-MEL-28 melanoma = test system: SK-MEL-28 melanoma
SK-MEL-5 melanoma = test system: SK-MEL-5 melanoma
TK-10 renal = test system: TK-10 renal
HCT-15 colon = test system: HCT-15 colon
RXF 393 renal = test system: RXF 393 renal
UACC-257 melanoma = test system: UACC-257 melanoma
SK-MEL-2 melanoma = test system: SK-MEL-2 melanoma
HOP-62 NSCLC = test system: HOP-62 NSCLC
CAKI-1 renal = test system: CAKI-1 renal
CCRF-CEM leukemia = test system: CCRF-CEM leukemia
SF-268 CNS = test system: SF-268 CNS
EKVX NSCLC = test system: EKVX NSCLC
OVCAR-5 ovarian = test system: OVCAR-5 ovarian
NCI-H226 lung = test system: NCI-H226 lung
RXF-631 renal = test system: RXF-631 renal
ACHN renal = test system: ACHN renal
HL-60(TB) leukemia = test system: HL-60(TB) leukemia
NCI-H522 lung = test system: NCI-H522 lung
XF 498 CNS = test system: XF 498 CNS
SR leukemia = test system: SR leukemia
SNB-19 CNS = test system: SNB-19 CNS
M19-MEL melanoma = test system: M19-MEL melanoma
DMS 114 small cell lung = test system: DMS 114 small cell lung
SNB-78 CNS = test system: SNB-78 CNS
OVCAR-3 ovarian = test system: OVCAR-3 ovarian
HOP-18 NSCLC = test system: HOP-18 NSCLC
SF-295 CNS = test system: SF-295 CNS

SMILES: COc1cc(C2c3cc4c(cc3[C@@H](N(C)C)[C@H]3COC(=O)C23)OCO4)cc(OC)c1O (stereo not given in full)
- TGI (HCT-116 colon): > 100 µM
- TGI (RPMI-8226 leukemia): > 100 µM
- TGI (MALME-3M melanoma): > 100 µM
- TGI (HT29 colon): > 100 µM
- TGI (KM20L2 colon): 54.1 µM
- TGI (OVCAR-4 ovarian): > 100 µM
- TGI (DMS 273 small cell lung): > 100 µM
- TGI (SK-OV-3 ovarian): > 100 µM
- TGI (SF-539 CNS): 53.8 µM
- TGI (NCI-H460 lung): > 100 µM
- TGI (LXFL 529 NSCLC): > 100 µM
- TGI (M14 melanoma): > 100 µM
- TGI (SN12C renal): > 100 µM
- TGI (U251 CNS): > 100 µM
- TGI (A498 renal): 56 µM
- TGI (COLO 205 colon): > 100 µM
- TGI (786-0 renal): > 100 µM
- TGI (KM12 colon): > 100 µM
- TGI (UO-31 renal): > 100 µM
- TGI (NCI-H23 lung): > 100 µM
- TGI (OVCAR-8 ovarian): 80.1 µM
- TGI (HOP-92 NSCLC): 68.1 µM
- TGI (A549 NSCLC): > 100 µM
- TGI (MOLT-4 leukemia): > 100 µM
- TGI (UACC-62 melanoma): > 100 µM
- TGI (SW-620 colon): > 100 µM
- TGI (SNB-75 CNS): > 100 µM
- TGI (IGROV1 ovarian): > 100 µM
- TGI (DLD-1 colon): > 100 µM
- TGI (K-562 leukemia): > 100 µM
- TGI (LOX IMVI melanoma): > 100 µM
- TGI (HCC-2998 colon): > 100 µM
- TGI (SK-MEL-28 melanoma): > 100 µM
- TGI (SK-MEL-5 melanoma): 86.5 µM
- TGI (TK-10 renal): > 100 µM
- TGI (HCT-15 colon): > 100 µM
- TGI (RXF 393 renal): > 100 µM
- TGI (UACC-257 melanoma): > 100 µM
- TGI (SK-MEL-2 melanoma): > 100 µM
- TGI (HOP-62 NSCLC): > 100 µM
- TGI (CAKI-1 renal): 99 µM
- TGI (CCRF-CEM leukemia): > 100 µM
- TGI (SF-268 CNS): > 100 µM
- TGI (EKVX NSCLC): > 100 µM
- TGI (OVCAR-5 ovarian): > 100 µM
- TGI (NCI-H226 lung): > 100 µM
- TGI (RXF-631 renal): > 100 µM
- TGI (ACHN renal): > 100 µM
- TGI (HL-60(TB) leukemia): > 100 µM
- TGI (NCI-H522 lung): 18.8 µM
- TGI (XF 498 CNS): > 100 µM
- TGI (SR leukemia): > 100 µM

SMILES: COC(=O)C1Cc2c([nH]c3ccccc23)C(c2ccccc2O)N1Cc1ccccc1 (stereo not given)
- TGI (SNB-19 CNS): > 31.6 µM
- TGI (HCT-116 colon): > 31.6 µM
- TGI (RPMI-8226 leukemia): > 100 µM
- TGI (MALME-3M melanoma): > 31.6 µM
- TGI (HT29 colon): > 46.4 µM
- TGI (KM20L2 colon): > 46.4 µM
- TGI (OVCAR-4 ovarian): 33.6 µM
- TGI (DMS 273 small cell lung): > 31.6 µM
- TGI (SK-OV-3 ovarian): 40.1 µM
- TGI (SF-539 CNS): 65.2 µM
- TGI (NCI-H460 lung): > 46.4 µM
- TGI (LXFL 529 NSCLC): 43.9 µM
- TGI (M14 melanoma): > 46.4 µM
- TGI (SN12C renal): > 46.4 µM
- TGI (U251 CNS): 39.5 µM
- TGI (A498 renal): 37.8 µM
- TGI (COLO 205 colon): > 46.4 µM
- TGI (786-0 renal): 31.2 µM
- TGI (M19-MEL melanoma): > 46.4 µM
- TGI (DMS 114 small cell lung): > 31.6 µM
- TGI (SNB-78 CNS): > 46.4 µM
- TGI (KM12 colon): > 31.6 µM
- TGI (UO-31 renal): > 46.4 µM
- TGI (NCI-H23 lung): > 46.4 µM
- TGI (OVCAR-8 ovarian): > 46.4 µM
- TGI (HOP-92 NSCLC): 43.5 µM
- TGI (A549 NSCLC): > 46.4 µM
- TGI (MOLT-4 leukemia): > 46.4 µM
- TGI (UACC-62 melanoma): 33.1 µM
- TGI (SW-620 colon): > 46.4 µM
- TGI (SNB-75 CNS): 18.8 µM
- TGI (IGROV1 ovarian): 33.3 µM
- TGI (DLD-1 colon): > 100 µM
- TGI (K-562 leukemia): > 46.4 µM
- TGI (OVCAR-3 ovarian): 39.2 µM
- TGI (LOX IMVI melanoma): > 46.4 µM
- TGI (HCC-2998 colon): > 31.6 µM
- TGI (SK-MEL-28 melanoma): > 31.6 µM
- TGI (SK-MEL-5 melanoma): > 46.4 µM
- TGI (TK-10 renal): > 46.4 µM
- TGI (HCT-15 colon): > 46.4 µM
- TGI (RXF 393 renal): 61.7 µM
- TGI (UACC-257 melanoma): > 46.4 µM
- TGI (SK-MEL-2 melanoma): > 31.6 µM
- TGI (HOP-62 NSCLC): > 63.5 µM
- TGI (CAKI-1 renal): 34.5 µM
- TGI (CCRF-CEM leukemia): > 46.4 µM
- TGI (SF-268 CNS): > 31.6 µM
- TGI (EKVX NSCLC): > 31.6 µM
- TGI (OVCAR-5 ovarian): > 46.4 µM
- TGI (HOP-18 NSCLC): > 46.4 µM
- TGI (NCI-H226 lung): > 46.4 µM
- TGI (RXF-631 renal): 45.3 µM
- TGI (SF-295 CNS): 42.6 µM
- TGI (ACHN renal): 39.9 µM
- TGI (HL-60(TB) leukemia): > 46.4 µM
- TGI (NCI-H522 lung): > 31.6 µM
- TGI (SR leukemia): > 31.6 µM
